Data on 34 compounds can be found in patent US10688093B2, “Methods, compositions, and uses of novel Fyn kinase inhibitors” (priority 2015, dated 2020).

This assay has as its target full-length recombinant human FYN A (Homo sapiens (Human), UniProt P06241). Briefly: ADP-Glo Kinase Assay of FYN kinase inhibition. Format: biochemical. The following applies: primary screen, initial compounds. From the text: The chemical library was comprised of the SoftFocus ATP-competitive hinge binding compounds described by Harris, C. J., Hill, R. D., Sheppard, D. W., et al., The Design and Application of Target-Focused Compound Libraries. Combinatorial Chemistry and High Throughput Screening 14:521-31 (2011). The specific pharmacore chemistries included SFK52 comprising 6-[R2]-3-[R1]imidazo[1,2-b] pyridazine compounds, SFK33 comprising N-(3-[R2] imidazo [1,2-b] pyridazin-6-yl) [R1] amine compounds, SFK49 comprising N-(5-[R2] imidazo [2,1-b][1,3,4] thiadiazol-2-yl)[R1]-amine compounds, SFK 40 comprising 5-[R2]-3-[R1] pyridin-2-amine compounds, SFK43 comprising 6-[R2]-3-[R1]imidazo[1,2-a]pyrazine compounds, and SFK63. The chemical structures of the initial 600 potential kinase inhibitors are presented in Table 3, with those chosen for additional analysis presented in Table 4. Comparison of the compounds presented in Table 1 and those of Tables 2, 3 and 4, illustrate the novelty of the chemical structures claimed herein.
FYN kinase (10 micrograms) was from the FYN A Kinase Enzyme System (V3571, Promega UK Ltd.), a full-length recombinant human FYN A containing an N-terminal GST tag of about 85 kDa, expressed by bacullovirus in […] insect cells, supplied at a concentration of 0.1 microgram/microliter in 5×reaction buffer. The FYN substrate, a 12 amino acid peptide of the sequence […], containing a single tyrosine phosphorylation site, was custom synthesized (Peptide Synthetics, Peptide Protein Research, Fareham, UK) and supplied as a 4 mg/ml aqueous solution. All other reagents were obtained from Sigma (Sigma-Aldrich, Gillingham, Dorset, UK), with the exception of UltraPure ATP (V9102, Promega UK Ltd.) and the ATP-competitive broad spectrum protein kinase inhibitor staurosporine (569397, Merck Millipore, Watford, Hertfordshire, UK), or as otherwise indicated.
The assay procedure determines the IC50 of each potential FYN kinase inhibitor by measuring the enzyme catalyzed ATP-dependent phosphorylation of the FYN substrate peptide. The ADP-Glo™ Kinase Assay is specifically designed to quantify kinase activity by measuring the ADP produced in the reaction The reaction buffer comprises 40 mM Tris.HCl (pH 7.5), 20 mM MgCl2, 0.1 mg/ml BSA and 5 microM DTT. Individual compounds within the chemical library were dissolved in DMSO at known concentrations. Briefly, 2.5 microliters of reaction buffer containing 3 picograms of FYN kinase and serial dilutions of each potential FYN kinase inhibitor (9 3-fold dilutions of a 10 micromolar top sample) are placed into each well of a 384 well microtiter plate and incubated at room temperature for 30 minutes. An additional 2.5 microliters of reaction buffer containing 100 picograms of the FYN substrate and 12.5 picomoles of ATP are then added to each well and the reaction carried out for 90 minutes at room temperature. The reactions are terminated by addition of 5 microliters of the ADP-Glo™ Reagent component of the ADP-Glo™ Kinase Assay kit to each well. The ADP-Glo™ Reagent comprises an ATP-dependent adenylate cyclase, an inorganic pyrophosphatase and an excess of staurosporine. The adenylate cyclase converts the remaining ATP to cAMP and pyrophospahte, the pyrophosphatase converts the pyrophosphate to phosphate and the staurosporine inhibits the activity of the FYN kinase, the net effect is to remove all residual ATP while preserving the ADP produced by FYN kinase. The terminated reactions are incubated for 40 minutes at room temperature, prior to addition of the Kinase Detection Reagent component of the ADP-Glo™ Kinase Assay kit to each well. The Kinase Detection Reagent comprises pyruvate kinase, phosphoenol pyruvate (PEP), luciferin and luciferase. The pyruvate kinase converts PEP to pyruvate and in the process generates ATP from the residual ADP present in the terminated reaction. […]
In general terms: In ADP-Glo the light output rises with the ADP produced.

Chain of full-length recombinant human FYN A (P06241 whole entry): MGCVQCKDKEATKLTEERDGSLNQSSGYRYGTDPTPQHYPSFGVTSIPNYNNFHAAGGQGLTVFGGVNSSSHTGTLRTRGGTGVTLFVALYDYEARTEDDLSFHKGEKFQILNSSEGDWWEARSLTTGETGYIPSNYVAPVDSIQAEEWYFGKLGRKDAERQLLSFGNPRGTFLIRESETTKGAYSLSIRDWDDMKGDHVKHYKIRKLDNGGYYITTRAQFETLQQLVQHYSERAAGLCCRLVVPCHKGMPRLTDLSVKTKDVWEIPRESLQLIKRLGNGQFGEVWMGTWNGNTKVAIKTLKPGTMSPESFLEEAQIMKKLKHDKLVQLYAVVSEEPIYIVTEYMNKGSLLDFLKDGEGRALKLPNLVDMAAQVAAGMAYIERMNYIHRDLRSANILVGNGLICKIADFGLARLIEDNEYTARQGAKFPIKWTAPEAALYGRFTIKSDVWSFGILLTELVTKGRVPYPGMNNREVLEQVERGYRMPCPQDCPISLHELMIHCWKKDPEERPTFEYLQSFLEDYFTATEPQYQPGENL

The term IC50 denotes the concentration at which inhibition is half-maximal. In the case of `COc1ccc(-c2cnc3ccc(NCc4ccco4)nn23)cc1` [229_0144_0280, N-(2-furyl-methyl)-3-(4-methoxyphenyl) imidazo[1,2-b]pyridazin-6-amine], the IC50 was 3680 nM.
In the case of `Nc1cccc(-c2cnc3ccc(NCc4cccs4)nn23)c1` [229_0146_0005, 3-(3-aminophenyl)-N-(2-thienyimethyl) imidazo[1,2-b]pyridazin-6-amine], the IC50 came out at 1790 nM.
With `COc1cc(-c2cnc3ccc(NCc4cccs4)nn23)cc(OC)c1OC` [229_0146_0087, N-(2-thienylmethyl)-3-(3,4,5-trimethoxyphenyl) imidazo[1,2-b]pyridazin-6-amine], the IC50 is 3100 nM.
As for `COc1ccc(-c2cnc3ccc(NCc4cccs4)nn23)cc1` [229_0146_0280, 3-(4-methoxyphenyl)-N-(2-thienylmethyl) imidazo[1,2-b]pyridazin-6-amine], the IC50 was 5390 nM.
Then `Oc1cccc(-c2cnc3ccc(NCc4cccs4)nn23)c1` [229_0146_0284, 3-[6-(2-thienylmethyl-amino)imidazo[1,2-b]pyridazin-3-yl]phenol], with 1700 nM; and `OCc1ccc(-c2cnc3ccc(NCc4cccs4)nn23)cc1` [229_0146_0285, [4-[6-(2-thienylmethyl-amino)imidazo[1,2-b]pyridazin-3-yl]phenyl] methanol], with 1090 nM; and `Nc1ccc(-c2cnc3ccc(NCc4cccs4)nn23)cc1` [229_0146_0333, 3-(4-amino-phenyl)-N-(2-thienylmethyl) imidazo[1,2-b]pyridazin-6-amine], with 5420 nM.
In the case of `Fc1ccc(-c2cnc3ccc(NCc4cccs4)nn23)cc1` [229_0146_0339, 3-(4-fluoro-phenyl)-N-(2-thienylmethyl) imidazo[1,2-b]pyridazin-6-amine], the IC50 came out at 3280 nM.
In the case of `COc1cccc(-c2cnc3ccc(NCc4cccs4)nn23)c1` [229_0146_4140, 3-(3-methoxyphenyl)-N-(2-thienylmethyl) imidazo[1,2-b]pyridazin-6-amine], the IC50 came to 2950 nM.
Regarding `CC(=O)c1cccc(-c2cnc3ccc(NCc4cccs4)nn23)c1` [229_0146_4145, 1-[3-[6-(2-thienylmethyl-amino)imidazo[1,2-b]pyridazin-3-yl]phenyl] ethanone], the IC50 worked out at 441 nM.
Consider `CCC(CO)Nc1ccc2ncc(-c3cc(OC)c(OC)c(OC)c3)n2n1` (stereo not shown) [229_0153_0087, 2-[[3-(3,4,5-trimethoxy-phenyl)imidazo[1,2-b]pyridazin-6-yl]amino] butan-1-ol], for which the IC50 came out at 1280 nM.
Then `CCC(CO)Nc1ccc2ncc(-c3ccc(OC)cc3)n2n1` (stereo not shown) [229_0153_0280, 2-[[3-(4-methoxyphenyl)imidazo[1,2-b]pyridazin-6-yl]amino] butan-1-ol], with 1280 nM; and `CCC(CO)Nc1ccc2ncc(-c3ccc(CO)cc3)n2n1` (stereo not shown) [229_0153_0285, 2-[[3-[4-(hydroxy-methyl)phenyl]imidazo[1,2-b]pyridazin-6-yl]amino]butan-1-ol], with 2470 nM; and `CCC(CO)Nc1ccc2ncc(-c3ccc(OC)nc3)n2n1` (stereo not shown) [229_0153_0311, 2-[[3-(6-methoxy-3-pyridyl)imidazo [1,2-b]pyridazin-6-yl]amino] butan-1-ol], with 2370 nM.
On to `CCC(CO)Nc1ccc2ncc(-c3cccc(OC)c3)n2n1` (stereo not shown) [229_0153_4140, 2-[[3-(3-methoxyphenyl)imidazo[1,2-b]pyridazin-6-yl]amino]butan-1-ol], for which the IC50 came to 1550 nM.
With `CCC(CO)Nc1ccc2ncc(-c3cccs3)n2n1` (stereo not shown) [229_0153_4147, 2-[[3-(2-thienyl)imidazo [1,2-b]pyridazin-6-yl]amino] butan-1-ol], the IC50 is 3970 nM.
Turning to `COc1ccc(-c2cnc3ccc(NCc4cccc(Cl)c4)nn23)cc1` [229_0223_0280, N-[(3-chlorophenyl)methyl]-3-(4-methoxyphenyl) imidazo[1,2-b]pyridazin-6-amine], the IC50 came out at 10700 nM.
Turning to `OCc1cccc(-c2cnc3ccc(NCc4cccc(Cl)c4)nn23)c1` [229_0223_0291, [3-[6-[(3-chlorophenyl)methylamino]imidazo[1,2-b]pyridazin-3-yl]phenyl] methanol], the IC50 is 5110 nM.
Take `COc1ccc(-c2cnc3ccc(NCc4cccc(Cl)c4)nn23)cn1` [229_0223_0311, N-[(3-chlorophenyl)methyl]-3-(6-methoxy-3-pyridyl)imidazo [1,2-b]pyridazin-6-amine]: the IC50 is 8340 nM.
Consider `COc1cc(-c2cnc3ccc(NCc4cccc(Cl)c4)nn23)ccc1O` [229_0223_0314, 4-[6-[(3-chlorophenyl)methylamino]imidazo[1,2-b]pyridazin-3-yl]-2-methoxy-phenol], for which the IC50 is 3520 nM.
On to `Nc1ccc(-c2cnc3ccc(NCc4cccc(Cl)c4)nn23)cc1` [229_0223_0333, 3-(4-aminophenyl)-N-[(3-chlorophenyl)methyl]imidazo [1,2-b]pyridazin-6-amine], for which the IC50 was determined as 3410 nM.
As for `OCc1ccc(-c2cnc3ccc(NCc4ccc(F)cc4)nn23)cc1` [229_0224_0285, [4-[6-[(4-fluorophenyl)methylamino]imidazo[1,2-b]pyridazin-3-yl]phenyl] methanol], the IC50 came out at 2440 nM.
Then `CCCNc1ccc2ncc(-c3cccc(N)c3)n2n1` [229_0226_0005, 3-(3-aminophenyl)-N-propyl-imidazo[1,2-b]pyridazin-6-amine], with 932 nM; and `CCCNc1ccc2ncc(-c3ccc4c(c3)OCO4)n2n1` [229_0226_0068, 3-(1,3-benzodioxol-5-yl)-N-propyl-imidazo[1,2-b]pyridazin-6-amine], with 2050 nM; and `CCCNc1ccc2ncc(-c3ccsc3)n2n1` [229_0226_0074, N-propyl-3-(3-thienyl)imidazo [1,2-b]pyridazin-6-amine], with 4040 nM.
Then `CCCNc1ccc2ncc(-c3ccc(OC)c(OC)c3)n2n1` [229_0226_0079, 3-(3,4-dimethoxy-phenyl)-N-propyl-imidazo[1,2-b]pyridazin-6-amine], with 519 nM; and `CCCNc1ccc2ncc(-c3cccc(NC(C)=O)c3)n2n1` [229_0226_0081, N-[3-[6-(propylamino)imidazo[1,2-b]pyridazin-3-yl]phenyl] acetamide], with 629 nM.
With `CCCNc1ccc2ncc(-c3ccc(C(=O)O)cc3)n2n1` [229_0226_0140, 4-[6-(propylamino)imidazo[1,2-b]pyridazin-3-yl]benzoic acid], the IC50 came out at 9770 nM.
Then `CCCNc1ccc2ncc(-c3ccc(OC)cc3)n2n1` [229_0226_0280, 3-(4-methoxyphenyl)-N-propyl-imidazo[1,2-b]pyridazin-6-amine], with 5430 nM; and `CCCNc1ccc2ncc(-c3cccc(O)c3)n2n1` [229_0226_0284, 3-[6-(propylamino)imidazo[1,2-b]pyridazin-3-yl]phenol], with 930 nM; and `CCCNc1ccc2ncc(-c3cccc(OC)c3)n2n1` [229_0226_4140, 3-(3-methoxyphenyl)-N-propyl-imidazo[1,2-b]pyridazin-6-amine], with 2220 nM.
For the compound `CCCNc1ccc2ncc(-c3cccc(C(C)=O)c3)n2n1` [229_0226_4145, 1-[3-[6-(propylamino)imidazo[1,2-b]pyridazin-3-yl]phenyl] ethanone], the IC50 turned out to be 367 nM.
As for `O=C(O)c1ccc(-c2cnc3ccc(NCc4ccc(Cl)c(Cl)c4)nn23)cc1` [229_0227_0140, 4-[6-[(3,4-dichlorophenyl)methylamino]imidazo[1,2-b]pyridazin-3-yl]benzoic acid], the IC50 came to 1010 nM.
On to `c1cc(-c2cnc3ccc(NCc4ccc5c(c4)OCO5)nn23)ccn1` [229_0236_0069, N-(1,3-benzodioxol-5-ylmethyl)-3-(4-pyridyl)imidazo [1,2-b]pyridazin-6-amine], for which the IC50 was determined as 380 nM.
